The target in assay [1] is human DGKα (Homo sapiens (Human), UniProt P23743). The experiment in a line: DGKα Biochemical Activity Assay (ADP-Glo). Particulars: recombinant DGKα 1 nM, 100 μM ATP, 18:1 DAG/POPS/octylglucoside micelles, 1 hour at 25° C.; geometric mean; read-out: HTBS DGKa 1X ATP KM IC50. The method in brief:
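Recombinant DGKα (1 nM final) was preincubated with compound for 15 min, then reacted for 1 h at 25 °C with 100 μM ATP and octylglucoside micelles of 0.85 mM 18:1 DAG and 6.75 mM POPS in pH 7.2 MOPS with 5 mM MgCl2. ADP formed was read by ADP-Glo luminescence. IC50 came from four-parameter fits normalized to DMSO and 50 μM CU3, and values were geometric means.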
(In general: In ADP-Glo the light output rises with the ADP produced.)

Assay [2] concerns Jurkat NFκB-luciferase cells. Nature of the assay: Jurkat NFκB-Luciferase Assay. The class given is cell-based. Particulars: Homo sapiens; Jurkat NFκB-luciferase cells activated with anti-CD3 antibody (OKT3), 2.5 hrs at 37° C.; geometric mean; read-out: DGK NFKb Luciferase EC50. The method in brief: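 Jurkat NFκB-luciferase reporter cells stimulated on plate-bound anti-CD3 (5 ug/ml coating) with compound, 2.5 hrs at 37° C then 30 min at 25° C; luminescence read with One-Glo Ex. Normalized to DMSO (basal) and 1 micromolar compound (maximum) controls; EC50 from four-parameter fit, geometric mean across experiments.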

Chain of human DGKα (P23743 whole entry): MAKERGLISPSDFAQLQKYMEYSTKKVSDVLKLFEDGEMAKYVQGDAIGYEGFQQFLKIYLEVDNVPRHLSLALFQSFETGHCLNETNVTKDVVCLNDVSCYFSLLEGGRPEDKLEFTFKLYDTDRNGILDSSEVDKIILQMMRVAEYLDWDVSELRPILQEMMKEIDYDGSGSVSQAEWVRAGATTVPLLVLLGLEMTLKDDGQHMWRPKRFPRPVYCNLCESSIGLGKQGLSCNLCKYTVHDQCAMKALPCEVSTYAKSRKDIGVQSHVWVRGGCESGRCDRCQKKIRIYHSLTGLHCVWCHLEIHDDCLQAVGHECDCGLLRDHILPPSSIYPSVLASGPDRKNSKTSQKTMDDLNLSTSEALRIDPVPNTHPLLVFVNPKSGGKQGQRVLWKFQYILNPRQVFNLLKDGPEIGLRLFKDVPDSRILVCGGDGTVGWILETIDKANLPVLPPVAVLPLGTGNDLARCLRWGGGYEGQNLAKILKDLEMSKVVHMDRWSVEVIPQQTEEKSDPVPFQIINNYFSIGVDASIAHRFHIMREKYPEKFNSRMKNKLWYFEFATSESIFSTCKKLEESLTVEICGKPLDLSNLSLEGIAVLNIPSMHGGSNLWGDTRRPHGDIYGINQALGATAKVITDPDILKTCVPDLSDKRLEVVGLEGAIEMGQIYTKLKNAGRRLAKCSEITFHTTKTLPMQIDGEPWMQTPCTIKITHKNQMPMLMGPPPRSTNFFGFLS

What is called IC50 is the concentration that inhibits the measured activity by half. Usually EC50 stands for the midpoint of the concentration-response curve. Regarding `Cc1nnc2nc(N(CC(F)F)c3ccnc(C#CC4(C(F)(F)F)CC4)c3)c3c(F)cncc3n12` [Example 53, N-(2,2-difluoroethyl)-6-fluoro-1-methyl-N-(2-((1-(trifluoromethyl)cyclopropyl)ethynyl)pyridin-4-yl)pyrido[4,3-e][1,2,4]triazolo[4,3-a]pyrimidin-5-amine], the concentration for half-maximal inhibition (IC50) in assay [1] is 16 nM. The EC50 in assay [2] was 12.1 nM.

Consider `CC(C)(O)C#Cc1cc(N(CC(F)F)c2nc3nncn3c3cncc(F)c23)ccn1` [Example 54, 4-(4-((2,2-difluoroethyl)(6-fluoropyrido[4,3-e][1,2,4]triazolo[4,3-a]pyrimidin-5-yl)amino)pyridin-2-yl)-2-methylbut-3-yn-2-ol], for which the IC50 in assay [1] is 184 nM. The concentration giving a half-maximal response (EC50) in assay [2] worked out at 1000 nM.

As for `Fc1cncc2c1c(N(CC(F)F)c1ccnc(C#CC3(C(F)(F)F)CC3)c1)nc1nncn12` [Example 55, N-(2,2-difluoroethyl)-6-fluoro-N-(2-((1-(trifluoromethyl)cyclopropyl)ethynyl)pyridin-4-yl)pyrido[4,3-e][1,2,4]triazolo[4,3-a]pyrimidin-5-amine], in assay [1], the IC50 was 23.3 nM. The half-maximal effective concentration (EC50) in assay [2] is 28.1 nM.

For the molecule `Cc1nnc2nc(N3CCOCc4c(C#CC5CN(C)CCO5)cccc43)c3c(F)cncc3n12` (stereo not drawn) [Example 56, 1-(10-fluoro-3-methyl-2,4,5,7,12-pentazatricyclo[7.4.0.02,6]trideca-1(13),3,5,7,9,11-hexaen-8-yl)-6-[2-(4-methylmorpholin-2-yl)ethynyl]-3,5-dihydro-2H-4,1-benzoxazepine], the IC50 in assay [1] was 18.6 nM. In assay [2], the EC50 amounted to 109 nM.

As to `CN(c1cncc(-c2ccc(C3CC3)cc2)n1)c1nc2nncn2c2cnccc12` [Example 57, N-[6-(4-cyclopropylphenyl)pyrazin-2-yl]-N-methyl-2,4,5,7,12-pentazatricyclo[7.4.0.02,6]trideca-1(13),3,5,7,9,11-hexaen-8-amine], in assay [1], the IC50 came to 130 nM. Moreover, the 50% effective concentration (EC50) in assay [2] was found to be 9.91 nM.

Consider `CCN(c1cccc(-c2ccc(C3CC3)nc2)c1)c1nc2nncn2c2cnccc12` [Example 58, N-[3-(6-cyclopropyl-3-pyridyl)phenyl]-N-ethyl-2,4,5,7,12-pentazatricyclo[7.4.0.02,6]trideca-1(13),3,5,7,9,11-hexaen-8-amine], for which the concentration for half-maximal inhibition (IC50) in assay [1] came out at 219 nM. Moreover, in assay [2], the EC50 was found to be 28.9 nM.

For `CN(c1cccc(-c2ccc(N3CCCS3(=O)=O)cc2)c1)c1nc2nncn2c2cnccc12` [Example 59, N-[3-[4-(1,1-dioxo-1,2-thiazolidin-2-yl)phenyl]phenyl]-N-methyl-2,4,5,7,12-pentazatricyclo[7.4.0.02,6]trideca-1(13),3,5,7,9,11-hexaen-8-amine], the 50% inhibitory concentration (IC50) in assay [1] worked out at 45.2 nM. In addition, in assay [2], the EC50 came to 121 nM.

Consider `CN(c1cccc(-c2ccc(C3CC3)cc2)c1)c1nc2nncn2c2cnccc12` [Example 61, N-[3-(4-cyclopropylphenyl)phenyl]-N-methyl-2,4,5,7,12-pentazatricyclo[7.4.0.02,6]trideca-1(13),3,5,7,9,11-hexaen-8-amine], for which, in assay [1], the IC50 was found to be 22.8 nM. For the same molecule, in assay [2], the EC50 came out at 0.543 nM.

`CN(c1cccc(-c2ccc(C3CC3)nc2)c1)c1nc2nncn2c2cnccc12` [Example 62, N-[3-(6-cyclopropyl-3-pyridyl)phenyl]-N-methyl-2,4,5,7,12-pentazatricyclo[7.4.0.02,6]trideca-1(13),3,5,7,9,11-hexaen-8-amine]: the half-maximal inhibitory concentration (IC50) in assay [1] was determined as 159 nM. Also, the EC50 in assay [2] came to 27.7 nM.

With `Cc1nnc2nc(N3CCCCc4c(C#CC(C)(C)C(C)(F)F)cccc43)c3c(F)cncc3n12` [Example 63, 5-(6-(4,4-difluoro-3,3-dimethylpent-1-yn-1-yl)-2,3,4,5-tetrahydro-1H-benzo[b]azepin-1-yl)-6-fluoro-1-methylpyrido[4,3-e][1,2,4]triazolo[4,3-a]pyrimidine], the IC50 in assay [1] is 11.6 nM. The EC50 in assay [2] stood at 1.09 nM.

For the molecule `Cc1nnc2nc(N3CCCCc4c(C#CC5(C(C)(F)F)CC5)cccc43)c3c(F)cncc3n12` [Example 65, 5-(6-((1-(1,1-difluoroethyl)cyclopropyl)ethynyl)-2,3,4,5-tetrahydro-1H-benzo[b]azepin-1-yl)-6-fluoro-1-methylpyrido[4,3-e][1,2,4]triazolo[4,3-a]pyrimidine], the IC50 in assay [1] came out at 22.7 nM. Further, in assay [2], the 50% effective concentration (EC50) came to 0.337 nM.

For `Cc1nnc2nc(N3CCCCc4c(C#CC(C)(C)O)cccc43)c3c(F)cncc3n12` [Example 66, 4-(1-(6-fluoro-1-methylpyrido[4,3-e][1,2,4]triazolo[4,3-a]pyrimidin-5-yl)-2,3,4,5-tetrahydro-1H-benzo[b]azepin-6-yl)-2-methylbut-3-yn-2-ol], the IC50 in assay [1] was 6.14 nM. The EC50 in assay [2] was found to be 15.9 nM.

`Cc1nnc2nc(N3CCCCc4c(C#CC5(C(F)F)CC5)cccc43)c3c(F)cncc3n12` [Example 67, 5-(6-((1-(difluoromethyl)cyclopropyl)ethynyl)-2,3,4,5-tetrahydro-1H-benzo[b]azepin-1-yl)-6-fluoro-1-methylpyrido[4,3-e][1,2,4]triazolo[4,3-a]pyrimidine]: in assay [1], the IC50 came to 3.96 nM. Further, the EC50 in assay [2] is 1.24 nM.

Consider `Cc1nnc2nc(N3CCCCc4c(C#CC5CC5)cccc43)c3c(F)cncc3n12` [Example 68, 5-(6-(cyclopropylethynyl)-2,3,4,5-tetrahydro-1H-benzo[b]azepin-1-yl)-6-fluoro-1-methylpyrido[4,3-e][1,2,4]triazolo[4,3-a]pyrimidine], for which, in assay [1], the IC50 came out at 7.67 nM. The EC50 in assay [2] was 1.19 nM.

On to `Cc1nnc2nc(N3CCCCc4c(Br)cccc43)c3c(F)cncc3n12` [Example 69, 5-(6-bromo-2,3,4,5-tetrahydro-1H-benzo[b]azepin-1-yl)-6-fluoro-1-methylpyrido[4,3-e][1,2,4]triazolo[4,3-a]pyrimidine], for which, in assay [1], the IC50 amounted to 220 nM. Further, in assay [2], the half-maximal effective concentration (EC50) worked out at 13.9 nM.

As to `Cc1nnc2nc(N3CCCOc4c(C#CC(C)(C)C(F)(F)F)cccc43)c3c(F)cncc3n12` [Example 70, 5-(6-fluoro-1-methylpyrido[4,3-e][1,2,4]triazolo[4,3-a]pyrimidin-5-yl)-9-(4,4,4-trifluoro-3,3-dimethylbut-1-yn-1-yl)-2,3,4,5-tetrahydrobenzo[b][1,4]oxazepine], the IC50 in assay [1] amounted to 6.44 nM. In assay [2], the 50% effective concentration (EC50) is 2.62 nM.

On to `Cc1nnc2nc(N3CCCOc4c(C#CC(C)(C)O)cccc43)c3c(F)cncc3n12` [Example 71, 4-(5-(6-fluoro-1-methylpyrido[4,3-e][1,2,4]triazolo[4,3-a]pyrimidin-5-yl)-2,3,4,5-tetrahydrobenzo[b][1,4]oxazepin-9-yl)-2-methylbut-3-yn-2-ol], for which the IC50 in assay [1] amounted to 18.5 nM. Further, the EC50 in assay [2] is 304 nM.

For the molecule `Cc1nnc2nc(N3CCCOc4c(C#CC5(C(F)(F)F)CC5)cccc43)c3c(F)cncc3n12` [Example 72, 5-(6-fluoro-1-methylpyrido[4,3-e][1,2,4]triazolo[4,3-a]pyrimidin-5-yl)-9-((1-(trifluoromethyl)cyclopropyl)ethynyl)-2,3,4,5-tetrahydrobenzo[b][1,4]oxazepine], the IC50 in assay [1] was determined as 7.4 nM. Also, the half-maximal effective concentration (EC50) in assay [2] stood at 3.03 nM.

Turning to `Cc1nnc2nc(N3CCCOc4c(C#CC5(C)CC5)cccc43)c3c(F)cncc3n12` [Example 73, 5-(6-fluoro-1-methylpyrido[4,3-e][1,2,4]triazolo[4,3-a]pyrimidin-5-yl)-9-((1-methylcyclopropyl)ethynyl)-2,3,4,5-tetrahydrobenzo[b][1,4]oxazepine], in assay [1], the IC50 was 4.17 nM. In addition, the EC50 in assay [2] was found to be 3.45 nM.

With `Cc1nnc2nc(N3CCCOc4c(C#CC5CC5)cccc43)c3c(F)cncc3n12` [Example 74, 9-(cyclopropylethynyl)-5-(6-fluoro-1-methylpyrido[4,3-e][1,2,4]triazolo[4,3-a]pyrimidin-5-yl)-2,3,4,5-tetrahydrobenzo[b][1,4]oxazepine], in assay [1], the IC50 turned out to be 2.29 nM. For the same molecule, the EC50 in assay [2] was 3.27 nM.

For the molecule `Cc1nnc2nc(N3CCCOc4c(Br)cccc43)c3c(F)cncc3n12` [Example 75, 9-bromo-5-(6-fluoro-1-methylpyrido[4,3-e][1,2,4]triazolo[4,3-a]pyrimidin-5-yl)-2,3,4,5-tetrahydrobenzo[b][1,4]oxazepine], the IC50 in assay [1] worked out at 357 nM. Besides, in assay [2], the 50% effective concentration (EC50) stood at 48.2 nM.

In the case of `Cc1nnc2nc(N3CCOCc4c(C#CC(C)(C)C(F)(F)F)cccc43)c3c(F)cncc3n12` [Example 76, 1-(6-fluoro-1-methylpyrido[4,3-e][1,2,4]triazolo[4,3-a]pyrimidin-5-yl)-6-(4,4,4-trifluoro-3,3-dimethylbut-1-yn-1-yl)-1,2,3,5-tetrahydrobenzo[e][1,4]oxazepine], the IC50 in assay [1] is 6.09 nM. Further, in assay [2], the EC50 worked out at 1.41 nM.

As for `Cc1nnc2nc(N3CCOCc4c(C#CC(C)(C)O)cccc43)c3c(F)cncc3n12` [Example 77, 4-(1-(6-fluoro-1-methylpyrido[4,3-e][1,2,4]triazolo[4,3-a]pyrimidin-5-yl)-1,2,3,5-tetrahydrobenzo[e][1,4]oxazepin-6-yl)-2-methylbut-3-yn-2-ol], the IC50 in assay [1] was found to be 12.6 nM. In addition, the concentration for a half-maximal effect (EC50) in assay [2] was 130 nM.

Take `Cc1nnc2nc(N3CCOCc4c(C#CC5(C(F)(F)F)CC5)cccc43)c3c(F)cncc3n12` [Example 78, 1-(6-fluoro-1-methylpyrido[4,3-e][1,2,4]triazolo[4,3-a]pyrimidin-5-yl)-6-((1-(trifluoromethyl)cyclopropyl)ethynyl)-1,2,3,5-tetrahydrobenzo[e][1,4]oxazepine]: in assay [1], the IC50 was 4.34 nM. The EC50 in assay [2] stood at 1.95 nM.

(Values after patent publication US11926628B2 (Gilead Sciences, Inc., priority 2021, dated 2024).)
